Drawing on the METLIN SMRT retention time set (Domingo-Almenara et al. 2019), this text covers RP-LC retention time for 58 compounds.

Structures are written as SMILES.

This data set in a line: gradient 5% acetonitrile 3 min, to 50% in 2 min, to 85% in 15 min, held 3 min, 100 µL/min. To be noted: column: Zorbax Extend-C18 2.1 x 50 mm; eluents: water / acetonitrile, 0.1% formic acid. A digest of the protocol:
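The system's dead and dwell volumes were 40 μL and 900 μL, with a Zorbax Extend-C18 column (2.1 × 50 mm, 1.8 μm) run at 100 μL/min in water and acetonitrile containing 0.1% formic acid each. Pure standards were analyzed in mixtures of ~100 molecules by HPLC–quadrupole time-of-flight mass spectrometry in positive and negative ionization mode. Retention time was assigned from computationally picked, manually inspected adduct peaks.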
`COC(=O)c1ccccc1NC(=O)N1CCC(C(=O)NCc2csc(-c3ccccc3)n2)CC1` returned an RP-LC retention time of 902 s. With `CN(C)c1cccc(C(=O)Nc2cccc(-c3nnc4n3CCCC4)c2)c1`, the RP-LC retention time was 594 s. With `Cc1[nH]c2ccccc2c1C(=O)C(=O)N(C)c1ccccc1`, the RP-LC retention time was 767 s.

Regarding `CC(C)CN1CC(c2nc(-c3ccccc3)no2)C2(CCCC2)C1` (stereo not drawn), the RP-LC retention time was found to be 763 s. Consider `CCc1noc(CC2CCOC3(CCN(S(=O)(=O)c4ccc(Cl)cc4)CC3)C2)n1` (stereo not drawn), for which the RP-LC retention time was 1070 s. `CCn1nc(C)c(CCNC(=O)Nc2ccccc2C(=O)OC)c1C` showed an RP-LC retention time of 646 s. Next, `O=C(NCCC1CCN(S(=O)(=O)c2ccc(F)cc2)CC1)Nc1ccc(F)cc1`: 909 s. Turning to `Cc1ccc(C(=O)N2C[C@@H]3C[C@H]2C[C@@H]3NS(C)(=O)=O)s1`, the RP-LC retention time was determined as 595 s. For `CN1C(=O)c2cccnc2Sc2cc(NC(=O)c3ccc(OC(F)(F)F)cc3)ccc21`, the RP-LC retention time was determined as 936 s. `COc1cc(NC(=O)C2CCN(C(=O)c3ncn4c3COC(c3ccccc3)C4)CC2)cc(OC)c1` (stereo not drawn): the RP-LC retention time was determined as 846 s. For the compound `Cc1ccc(-n2nnnc2CN2CCN(C(=O)CSc3nnnn3C)CC2)cc1`, the RP-LC retention time came to 664 s.

Turning to `O=C(CN1C(=O)CCCc2cc(S(=O)(=O)N3CCCC3)ccc21)NCc1ccc(F)cc1`, the RP-LC retention time amounted to 792 s. In turn, `Cn1cc(C(=O)NCc2ccc3c(c2)OCO3)c(S(=O)(=O)N2CCCCC2)n1` gave an RP-LC retention time of 854 s. Take `O=C(NCCn1nc(-c2ccc(F)cc2)ccc1=O)Nc1cccs1`: the RP-LC retention time was 692 s. For `CCOc1ccc(CNC(=O)c2cc(-c3ccncc3)cn2C)cc1`, the RP-LC retention time was found to be 644 s. In the case of `Cc1ccc(NS(=O)(=O)c2cc(-c3[nH]ncc3C(=O)N3CCCCC3)oc2C)cc1C`, the RP-LC retention time was 821 s.

Consider `CC(C)n1cnc2cc(CNC(=O)c3ccccn3)ccc21`, for which the RP-LC retention time was found to be 590 s. `Cc1ccc(Cl)cc1N1CCN(c2cc(C(=O)O)c3cc(NC(=O)CC(C)C)ccc3n2)CC1` returned an RP-LC retention time of 828 s.

Compound `C[C@H]1CN(C(=O)c2nn(C)c3ccccc23)C[C@@H]1c1nc(-c2cccnc2)no1` displayed an RP-LC retention time of 862 s. For the compound `CCN1C(=O)COc2ccc(-c3csc(NC(=O)C4CCCCC4)n3)cc21`, the RP-LC retention time was 1050 s. `CN1C(=O)c2cccc(NC(=O)c3ccc(S(=O)(=O)N4CCOCC4)cc3)c2C1=O` registered an RP-LC retention time of 813 s. In turn, `Cc1ccc(C)c(-c2csc(NC(=O)CCC(=O)O)n2)c1` displayed an RP-LC retention time of 781 s.

`CN1C(=O)CCC2(CNC(=O)c3cnccn3)CCC=C12` (stereo not drawn): the RP-LC retention time was 644 s.

Compound `NC(=O)c1ccc(OCC(O)CN2CC=C(c3ccc(F)cc3)CC2)cc1` (stereo not drawn) yielded an RP-LC retention time of 512 s. In the case of `Cc1ccc2nc(Nc3ncc4c(n3)CC(C)CC4=O)nc(C)c2c1` (stereo not drawn) it was 651 s.

The compound `CCc1ccc(C(=O)N2CCN(c3nc(CN4CCCCCC4)cs3)CC2)cc1` gave an RP-LC retention time of 708 s. Regarding `Cc1cccc(S(=O)(=O)N2CC3CN(C(=O)C(C)c4ccccc4)CC(C2)O3)c1` (stereo not drawn), the RP-LC retention time came to 905 s.

`COc1ccc(-c2nc3c(s2)CN(C(=O)Nc2ccccc2OC)CC3)cc1` gave an RP-LC retention time of 943 s. Take `N#Cc1ccc(C(=O)N2CCCCC2c2nncn2CC2CC2)cc1` (stereo not drawn): the RP-LC retention time was 677 s. Compound `O=c1c2cc(-c3ccccc3)nn2ccn1Cc1noc(CN2CCCC2)n1` returned an RP-LC retention time of 646 s. Regarding `CCCc1cc(N2CCN(C(=O)COc3ccccc3)CC2)nc2nnc(C)n12`, the RP-LC retention time is 634 s. Regarding `COc1ccc2nc(NC(=O)C3CCN(c4nc(-c5ccc(OC)c(OC)c5)no4)CC3)sc2c1`, the RP-LC retention time was determined as 933 s. Compound `Cc1ccc(C2CCCN2C(=O)Nc2ccc3c(c2)OCCO3)cc1` (stereo not drawn) gave an RP-LC retention time of 922 s. Compound `Cc1nn(C(C)C(=O)NCCCN2CCc3ccccc3C2)c(=O)c2nn(-c3ccccc3)c(C)c12` (stereo not drawn) had an RP-LC retention time of 667 s.

For the compound `Fc1ccc(-c2nnc(Cc3nc(-c4cccc(C(F)(F)F)c4)no3)o2)cc1`, the RP-LC retention time was found to be 1110 s. Turning to `COc1cccc(CNC(=O)c2ccc(CN3CCN(C(C)C)C(=O)C3=O)cc2)c1`, the RP-LC retention time worked out at 693 s. `Cc1cccc2nnc(N3CCCC(C(=O)Nc4ccc(N5CCOCC5)cc4)C3)n12` (stereo not drawn): the RP-LC retention time amounted to 625 s.

`Cc1ccc(C)c(C(=O)NCc2ccc3c(c2)ncn3C)c1` had an RP-LC retention time of 604 s. Next, `CCc1ccc(-c2csc(NC(=O)c3ccc(S(=O)(=O)N4CCCCC4)cc3)n2)cc1`: 1260 s; `CCn1cc(-c2nc(C)c(C(=O)N3CCN(c4ccccc4)CC3)s2)c2cccnc21`: 994 s; `CCCn1c(=O)c(-c2ccc(C(=O)NC(C)C)cc2)nc2cccnc21`: 894 s.

Take `CCc1nc2cc(N3CCC(C(=O)NCc4ccc(OC)cc4)CC3)cnc2nc1CC`: the RP-LC retention time worked out at 833 s. Take `COc1ccc(-c2cc(N3CCN(C(=O)Nc4cc(OC)ccc4OC)CC3)ncn2)cc1`: the RP-LC retention time worked out at 685 s.

On to `CCc1ccc(NC(=O)Cn2cnc3nc(N4CCCC(C(=O)NC(C)C)C4)sc3c2=O)cc1` (stereo not drawn), for which the RP-LC retention time was 710 s. For the compound `O=C(Nc1ccccc1)N1CCC(CCNC(=O)C2(c3ccccc3)CC2)CC1`, the RP-LC retention time came to 882 s. `Cc1cc(=O)n(CC(=O)Nc2ccc(Cl)cc2)c(-c2ccc(F)cc2)n1` showed an RP-LC retention time of 1120 s. `CCOC(=O)C1CCc2sc(NC(=O)CCn3cnc4ccccc4c3=O)nc21` (stereo not drawn): the RP-LC retention time stood at 690 s. Compound `CCOC(=O)C1CCN(Cc2nc(-c3ccc(N4CCC(C)CC4)nc3)no2)CC1` had an RP-LC retention time of 745 s. Take `Cc1cc(C)cc(C(=O)N2CCc3[nH]nc(C(=O)N(C)C)c3C2)c1`: the RP-LC retention time stood at 655 s. In the case of `Cc1nnc(NC(=O)c2cccc(C(F)(F)F)c2)s1` it was 749 s; in that of `O=C(c1c(F)cccc1Cl)N1CCCC(c2nnc(-c3ccccc3F)s2)C1` (stereo not drawn), 920 s.

`CC(C)Cc1nc(C2CN(C(=O)c3cnccn3)CC23CCCC3)no1` (stereo not drawn) returned an RP-LC retention time of 618 s.

Regarding `Cc1ccc(-c2nc3nc(C)cc(C)n3c2Nc2cccc(C(F)(F)F)c2)cc1`, the RP-LC retention time amounted to 817 s.

Take `CN(C)C(CNS(=O)(=O)c1ccc(Br)s1)c1cn(C)c2ccccc12` (stereo not drawn): the RP-LC retention time was determined as 595 s. Compound `Cc1ccnc(NC(=O)C2CCN(S(=O)(=O)c3ccc4c(c3)sc(=O)n4C)CC2)c1` returned an RP-LC retention time of 645 s. In turn, `O=C(O)c1cc(Nc2ccc(F)cc2)c2cccc(Cl)c2n1` yielded an RP-LC retention time of 624 s. Compound `O=C(NCCN1CCOCC1)c1cc2n(n1)CCCN(Cc1ccc(F)cc1)C2=O` registered an RP-LC retention time of 606 s. The compound `CNC(=O)C1CCN(C(=O)Nc2ccc(NC(=O)Nc3ccc(C)cc3C)cc2)CC1` returned an RP-LC retention time of 673 s.
